Assay results: patent US8952024B2, “Herbicidal pyrimidone derivatives” (E I du Pont de Nemours and Company, priority 2009, dated 2015)

tested on: galium (catchweed bedstraw, Galium aparine); test: Test B pre-/postemergence plant response; assay type: in vivo; conditions: 250 g ai/ha, Preemergence, 0 to 100 scale
Method in brief: (§1)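 Seeds were sown in loam soil/sand blend and treated preemergence with compound in non-phytotoxic solvent mixture containing surfactant; postemergence sprays, same formulation, went onto plants 2 to 18 cm (1- to 4-leaf stage) in peat-based planting medium. Greenhouse 13 to 15 days, then visual rating versus untreated controls, 0 (no effect) to 100 (complete control).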

Row | Compound | Plant response rating, Galium
1 | CCCCc1ncc(C(=O)C2=C(O)CCCC2=O)c(=O)n1-c1ccccc1 [Compound 42] | 50

same assay, conditions: Preemergence, 31 g ai/ha; scale 0 to 100 (0 no effect, 100 complete control)

Row | Compound | Plant response rating, Galium
2 | COCCn1c(-c2cc(F)cc(F)c2)ncc(C(=O)C2=C(O)CCCC2=O)c1=O [Compound 119] | 65
3 | COCCCn1c(-c2cc(F)cc(F)c2)ncc(C(=O)C2=C(O)CCCC2=O)c1=O [Compound 120] | 80
4 | COc1ccc(-n2c(-c3ccccc3)ncc(C(=O)C3=C(O)CCCC3=O)c2=O)cc1OC [Compound 218] | 60
5 | CCCn1c(-c2cccs2)ncc(C(=O)C2=C(O)CCCC2=O)c1=O [Compound 77] | 0
6 | CCCCc1ncc(C(=O)C2=C(O)CCCC2=O)c(=O)n1-c1ccccc1 [Compound 42] | 0

same assay, conditions: Preemergence, 62 g ai/ha; scale 0 to 100 (0 no effect, 100 complete control)

Row | Compound | Plant response rating, Galium
7 | COCCn1c(-c2cc(F)cc(F)c2)ncc(C(=O)C2=C(O)CCCC2=O)c1=O [Compound 119] | 85
8 | COCCCn1c(-c2cc(F)cc(F)c2)ncc(C(=O)C2=C(O)CCCC2=O)c1=O [Compound 120] | 90
9 | COc1ccc(-n2c(-c3ccccc3)ncc(C(=O)C3=C(O)CCCC3=O)c2=O)cc1OC [Compound 218] | 80
10 | CCCn1c(-c2cccs2)ncc(C(=O)C2=C(O)CCCC2=O)c1=O [Compound 77] | 20
11 | CCCCc1ncc(C(=O)C2=C(O)CCCC2=O)c(=O)n1-c1ccccc1 [Compound 42] | 0

same assay, conditions: Preemergence, 125 g ai/ha; 0 to 100 scale

Row | Compound | Galium plant response rating
12 | CCCCc1ncc(C(=O)C2=C(O)CCCC2=O)c(=O)n1-c1ccccc1 [Compound 42] | 10

same assay, conditions: Preemergence, 125 g ai/ha; scale 0 to 100, 0 no effect, 100 complete control

Row | Compound | Plant response rating, Galium
13 | COCCn1c(-c2cc(F)cc(F)c2)ncc(C(=O)C2=C(O)CCCC2=O)c1=O [Compound 119] | 90
14 | COCCCn1c(-c2cc(F)cc(F)c2)ncc(C(=O)C2=C(O)CCCC2=O)c1=O [Compound 120] | 95
15 | COc1ccc(-n2c(-c3ccccc3)ncc(C(=O)C3=C(O)CCCC3=O)c2=O)cc1OC [Compound 218] | 95
16 | CCCn1c(-c2cccs2)ncc(C(=O)C2=C(O)CCCC2=O)c1=O [Compound 77] | 85

same assay, conditions: Preemergence, 250 g ai/ha; 0 to 100 scale

Row | Compound | Galium plant response rating
17 | COCCn1c(-c2cc(F)cc(F)c2)ncc(C(=O)C2=C(O)CCCC2=O)c1=O [Compound 119] | 100
18 | COCCCn1c(-c2cc(F)cc(F)c2)ncc(C(=O)C2=C(O)CCCC2=O)c1=O [Compound 120] | 98
19 | COc1ccc(-n2c(-c3ccccc3)ncc(C(=O)C3=C(O)CCCC3=O)c2=O)cc1OC [Compound 218] | 100
20 | CCCn1c(-c2cccs2)ncc(C(=O)C2=C(O)CCCC2=O)c1=O [Compound 77] | 90

tested on: nightshade (eastern black nightshade, Solanum ptycanthum); test: Test B pre-/postemergence plant response; assay type: in vivo; conditions: 250 g ai/ha, Preemergence, 0 to 100 scale
Method in brief: as §1

Row | Compound | Plant response rating, Nightshade
21 | CCCCc1ncc(C(=O)C2=C(O)CCCC2=O)c(=O)n1-c1ccccc1 [Compound 42] | 100

same assay, conditions: Preemergence, 31 g ai/ha; scale 0 to 100 (0 no effect, 100 complete control)

Row | Compound | Plant response rating, Nightshade
22 | COCCn1c(-c2cc(F)cc(F)c2)ncc(C(=O)C2=C(O)CCCC2=O)c1=O [Compound 119] | 90
23 | COCCCn1c(-c2cc(F)cc(F)c2)ncc(C(=O)C2=C(O)CCCC2=O)c1=O [Compound 120] | 90
24 | COc1ccc(-n2c(-c3ccccc3)ncc(C(=O)C3=C(O)CCCC3=O)c2=O)cc1OC [Compound 218] | 98
25 | CCCn1c(-c2cccs2)ncc(C(=O)C2=C(O)CCCC2=O)c1=O [Compound 77] | 98
26 | CCCCc1ncc(C(=O)C2=C(O)CCCC2=O)c(=O)n1-c1ccccc1 [Compound 42] | 100

same assay, conditions: Preemergence, 62 g ai/ha; scale 0 to 100 (0 no effect, 100 complete control)

Row | Compound | Plant response rating, Nightshade
27 | COCCn1c(-c2cc(F)cc(F)c2)ncc(C(=O)C2=C(O)CCCC2=O)c1=O [Compound 119] | 98
28 | COCCCn1c(-c2cc(F)cc(F)c2)ncc(C(=O)C2=C(O)CCCC2=O)c1=O [Compound 120] | 95
29 | COc1ccc(-n2c(-c3ccccc3)ncc(C(=O)C3=C(O)CCCC3=O)c2=O)cc1OC [Compound 218] | 98
30 | CCCn1c(-c2cccs2)ncc(C(=O)C2=C(O)CCCC2=O)c1=O [Compound 77] | 98
31 | CCCCc1ncc(C(=O)C2=C(O)CCCC2=O)c(=O)n1-c1ccccc1 [Compound 42] | 100

same assay, conditions: Preemergence, 125 g ai/ha; 0 to 100 scale

Row | Compound | Nightshade plant response rating
32 | CCCCc1ncc(C(=O)C2=C(O)CCCC2=O)c(=O)n1-c1ccccc1 [Compound 42] | 100

same assay, conditions: Preemergence, 125 g ai/ha; scale 0 to 100, 0 no effect, 100 complete control

Row | Compound | Plant response rating, Nightshade
33 | COCCn1c(-c2cc(F)cc(F)c2)ncc(C(=O)C2=C(O)CCCC2=O)c1=O [Compound 119] | 98
34 | COCCCn1c(-c2cc(F)cc(F)c2)ncc(C(=O)C2=C(O)CCCC2=O)c1=O [Compound 120] | 95
35 | COc1ccc(-n2c(-c3ccccc3)ncc(C(=O)C3=C(O)CCCC3=O)c2=O)cc1OC [Compound 218] | 100
36 | CCCn1c(-c2cccs2)ncc(C(=O)C2=C(O)CCCC2=O)c1=O [Compound 77] | 98

same assay, conditions: Preemergence, 250 g ai/ha; 0 to 100 scale

Row | Compound | Nightshade plant response rating
37 | COCCn1c(-c2cc(F)cc(F)c2)ncc(C(=O)C2=C(O)CCCC2=O)c1=O [Compound 119] | 100
38 | COCCCn1c(-c2cc(F)cc(F)c2)ncc(C(=O)C2=C(O)CCCC2=O)c1=O [Compound 120] | 98
39 | COc1ccc(-n2c(-c3ccccc3)ncc(C(=O)C3=C(O)CCCC3=O)c2=O)cc1OC [Compound 218] | 100
40 | CCCn1c(-c2cccs2)ncc(C(=O)C2=C(O)CCCC2=O)c1=O [Compound 77] | 100

tested on: sunflower (common oilseed sunflower, Helianthus annuus); test: Test B pre-/postemergence plant response; assay type: in vivo; conditions: 250 g ai/ha, Preemergence, 0 to 100 scale
Method in brief: as §1

Row | Compound | Plant response rating, Sunflower
41 | CCCCc1ncc(C(=O)C2=C(O)CCCC2=O)c(=O)n1-c1ccccc1 [Compound 42] | 75

same assay, conditions: Preemergence, 31 g ai/ha; scale 0 to 100 (0 no effect, 100 complete control)

Row | Compound | Plant response rating, Sunflower
42 | COCCn1c(-c2cc(F)cc(F)c2)ncc(C(=O)C2=C(O)CCCC2=O)c1=O [Compound 119] | 40
43 | COCCCn1c(-c2cc(F)cc(F)c2)ncc(C(=O)C2=C(O)CCCC2=O)c1=O [Compound 120] | 45
44 | COc1ccc(-n2c(-c3ccccc3)ncc(C(=O)C3=C(O)CCCC3=O)c2=O)cc1OC [Compound 218] | 75
45 | CCCn1c(-c2cccs2)ncc(C(=O)C2=C(O)CCCC2=O)c1=O [Compound 77] | 60
46 | CCCCc1ncc(C(=O)C2=C(O)CCCC2=O)c(=O)n1-c1ccccc1 [Compound 42] | 0

same assay, conditions: Preemergence, 62 g ai/ha; scale 0 to 100 (0 no effect, 100 complete control)

Row | Compound | Plant response rating, Sunflower
47 | COCCn1c(-c2cc(F)cc(F)c2)ncc(C(=O)C2=C(O)CCCC2=O)c1=O [Compound 119] | 60
48 | COc1ccc(-n2c(-c3ccccc3)ncc(C(=O)C3=C(O)CCCC3=O)c2=O)cc1OC [Compound 218] | 80
49 | CCCn1c(-c2cccs2)ncc(C(=O)C2=C(O)CCCC2=O)c1=O [Compound 77] | 75

same assay, conditions: Preemergence, 125 g ai/ha; 0 to 100 scale

Row | Compound | Sunflower plant response rating
50 | CCCCc1ncc(C(=O)C2=C(O)CCCC2=O)c(=O)n1-c1ccccc1 [Compound 42] | 55

same assay, conditions: Preemergence, 125 g ai/ha; scale 0 to 100, 0 no effect, 100 complete control

Row | Compound | Plant response rating, Sunflower
51 | COCCn1c(-c2cc(F)cc(F)c2)ncc(C(=O)C2=C(O)CCCC2=O)c1=O [Compound 119] | 70
52 | COCCCn1c(-c2cc(F)cc(F)c2)ncc(C(=O)C2=C(O)CCCC2=O)c1=O [Compound 120] | 85
53 | COc1ccc(-n2c(-c3ccccc3)ncc(C(=O)C3=C(O)CCCC3=O)c2=O)cc1OC [Compound 218] | 90
54 | CCCn1c(-c2cccs2)ncc(C(=O)C2=C(O)CCCC2=O)c1=O [Compound 77] | 75

same assay, conditions: Preemergence, 250 g ai/ha; 0 to 100 scale

Row | Compound | Sunflower plant response rating
55 | COCCn1c(-c2cc(F)cc(F)c2)ncc(C(=O)C2=C(O)CCCC2=O)c1=O [Compound 119] | 85
56 | COCCCn1c(-c2cc(F)cc(F)c2)ncc(C(=O)C2=C(O)CCCC2=O)c1=O [Compound 120] | 95
57 | COc1ccc(-n2c(-c3ccccc3)ncc(C(=O)C3=C(O)CCCC3=O)c2=O)cc1OC [Compound 218] | 95
58 | CCCn1c(-c2cccs2)ncc(C(=O)C2=C(O)CCCC2=O)c1=O [Compound 77] | 85
